# Data from US7115632B1, “Sulfonyl aryl or heteroaryl hydroxamic acid compounds” (priority 1999, dated 2006).
# Counter-ions that a name gives are not always drawn.
# Assays:
# Test in all cases: In vitro metalloprotease inhibition, fluorogenic MCA peptide substrate
# Assay type in all cases: biochemical
# [1] = biological target: T1, MMP-2 (Homo sapiens, UniProt P08253)
# T1 construct: made in house; provided by Dr. Gregory Goldberg, Washington University
# T1 sequence (P08253 110-660): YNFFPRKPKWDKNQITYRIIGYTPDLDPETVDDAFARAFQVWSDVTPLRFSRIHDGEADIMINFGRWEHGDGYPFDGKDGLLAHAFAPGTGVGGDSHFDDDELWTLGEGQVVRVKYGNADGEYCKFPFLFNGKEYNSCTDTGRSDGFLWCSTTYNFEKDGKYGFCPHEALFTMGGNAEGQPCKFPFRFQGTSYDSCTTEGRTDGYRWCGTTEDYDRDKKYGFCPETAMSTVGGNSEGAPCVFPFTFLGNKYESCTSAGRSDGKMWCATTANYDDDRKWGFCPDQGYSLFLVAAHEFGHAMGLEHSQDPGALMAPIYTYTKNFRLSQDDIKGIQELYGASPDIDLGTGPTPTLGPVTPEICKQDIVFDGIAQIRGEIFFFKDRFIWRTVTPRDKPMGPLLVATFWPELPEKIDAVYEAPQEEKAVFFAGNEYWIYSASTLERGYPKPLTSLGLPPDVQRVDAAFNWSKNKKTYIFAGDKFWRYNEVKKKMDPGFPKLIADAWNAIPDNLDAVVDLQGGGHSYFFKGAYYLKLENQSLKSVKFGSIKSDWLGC
# Method: (§1) Briefly, 4-aminophenylmercuric acetate (APMA) or trypsin-activated MMPs were incubated with various concentrations of the inhibitor compound at room temperature for 5 minutes.
# (§2) The expressed enzyme was purified first over a heparin agarose column and then over a chelating zinc chloride column. The proenzyme was activated by APMA for use in the assay.
# (§3) MMP-1 expressed in transfected HT-1080 cells was provided by Dr. Harold Welgus of Washington University, St. Louis, Mo. The enzyme was also activated using APMA and was then purified over a hydroxamic acid column. Dr. Welgus also provided transfected HT-1080 cells that expressed MMP-9. Transfected cells that expressed MMP-2 were provided by Dr. Gregory Goldberg, also of Washington University.
# (§4) The ID50 values were calculated from those values.
# [2] = biological target: T2, MMP-13 (Homo sapiens, UniProt P45452)
# T2 construct: made in house; host or cells: insect cells, baculovirus expression
# Method: as §1, §2, §3, §4
# [3] = biological target: T3, MMP-1 (Homo sapiens, UniProt P03956)
# T3 construct: made in house; host or cells: transfected HT-1080 cells (provided by Dr. Harold Welgus, Washington University)
# T3 sequence (P03956 100-469): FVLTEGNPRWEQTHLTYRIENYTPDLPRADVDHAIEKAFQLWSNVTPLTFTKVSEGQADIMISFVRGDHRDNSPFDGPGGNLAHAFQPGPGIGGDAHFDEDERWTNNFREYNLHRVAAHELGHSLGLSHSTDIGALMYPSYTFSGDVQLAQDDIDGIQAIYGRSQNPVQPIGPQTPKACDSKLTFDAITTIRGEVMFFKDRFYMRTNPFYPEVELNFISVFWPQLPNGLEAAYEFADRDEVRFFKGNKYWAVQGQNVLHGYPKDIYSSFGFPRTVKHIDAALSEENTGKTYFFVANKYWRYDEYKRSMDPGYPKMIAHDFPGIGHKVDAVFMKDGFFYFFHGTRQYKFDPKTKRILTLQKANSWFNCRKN
# Method: as §1, §2, §3, §4
Compound,IC50 ([1]; Inhibition Table A),IC50 ([2]; Inhibition Table B),IC50 ([1]; Inhibition Table B),IC50 ([3]; Inhibition Table B),IC50 ([2]; Inhibition Table A),IC50 ([3]; Inhibition Table A)
"O=C(NO)c1ccccc1NS(=O)(=O)c1ccc(Oc2ccccc2)cc1 [Example 5, N-hydroxy-2-[[(4-phenoxyphenyl)sulfonyl]amino]benzamide]",3500 nM,,,,,
COc1cccc(OC2CCN(S(=O)(=O)c3ccc(OC)c(OC)c3C(=O)NO)CC2)c1 [Example 57],,250 nM,12.1 nM,> 10 µM,,
"O=C(NO)c1ccccc1S(=O)(=O)N1CCN(C(=O)c2ccccc2)CC1 [Example 51, 2-[(4-Benzoyl-1-piperazinyl)sulfonyl]-N-hydroxybenzamide]",,,,> 10 µM,,
"O=C(NO)c1c(F)cccc1S(=O)(=O)N1CCC(Oc2ccc(C(F)(F)F)cc2)CC1 [Example 19, 2-Fluoro-N-hydroxy-6-[[4-[4-(trifluoromethyl)phenoxy]-1-piperidinyl]sulfonyl]benzamide]",5 nM,,,,,
"CCCCOC1CCN(S(=O)(=O)c2ccc3c(c2C(=O)NO)OCO3)CC1 [Example 43, 5-[(4-Butoxy-1-piperidinyl)sulfonyl]-N-hydroxy-1,3-benzodioxole-4-carboxamide]",,3700 nM,200 nM,> 10 µM,,
"O=C(NO)c1ccccc1S(=O)(=O)N1CCC(Oc2ccncc2)CC1 [Example 21, N-Hydroxy-2-[[4-(4-pyridinyloxy)-1-piperidinyl]sulfonyl]benzamide]",5.9 nM,,,,63 nM,> 10 µM
"O=C(NO)c1ccccc1S(=O)(=O)N1CCC(c2ccccc2)CC1 [Example 9, N-Hydroxy-2-[[4-(phenyl)-1-piperidinyl]sulfonyl]benzamide]",45 nM,,,,1500 nM,
"O=C(NO)c1ccccc1CS(=O)(=O)c1ccc(Oc2ccccc2)cc1 [Example 1, N-hydroxy-2-[[(4-phenoxyphenyl)sulfonyl]methyl]benzamide]",10 nM,,,,45 nM,
"CCCCCCCOC1CCN(S(=O)(=O)c2ccc3c(c2C(=O)NO)OCO3)CC1 [Example 44, 5-[(4-Heptyloxy-1-piperidinyl)sulfonyl]-N-hydroxy-1,3-benzodioxole-4-carboxamide]",,330 nM,206 nM,> 10 µM,,
O=C(NO)c1c(OC2CCOCC2)cccc1S(=O)(=O)N1CCC(Oc2ccc(C(F)(F)F)cc2)CC1 [Example 48],,2.2 nM,1 nM,> 10 µM,,
"COc1ccc(S(=O)(=O)N2CCC(Oc3ccc(Cl)cc3)CC2)c(C(=O)NO)c1OC [Example 46, 6-[[4-(4-Chlorophenoxy)-1-piperidinyl]sulfonyl]-N-hydroxy-2,3-dimethoxybenzamide]",,1.5 nM,0.3 nM,> 10 µM,,
COc1ccc(S(=O)(=O)Cc2ccccc2C(=O)NO)cc1 [Example 6],,,,,4000 nM,> 10 µM
"COC1CCN(S(=O)(=O)c2ccc3c(c2C(=O)NO)OCCO3)CC1 [Example 30, 2,3-Dihydro-N-hydroxy-6-[(4-methoxy-1-piperidinyl)sulfonyl]-1,4-benzodioxin-5-carboxamide]",,> 10000 nM,> 10000 nM,> 10 µM,,
"O=C(NO)c1c(Cl)cccc1S(=O)(=O)N1CCC(Oc2ccc(C(F)(F)F)cc2)CC1 [Example 20, 2-Chloro-N-hydroxy-6-[[4-[4-(trifluoromethyl)phenoxy]-1-piperidinyl]sulfonyl]benzamide]",1.8 nM,,,,14.8 nM,> 10 µM
COc1ccc(OC)c(S(=O)(=O)N2CCC(Oc3ccc(C(F)(F)F)cc3)CC2)c1C(=O)NO [Example 35],,110 nM,21 nM,> 10 µM,,
"O=C(NO)c1ccccc1S(=O)(=O)N1CCC(Oc2ccc(C(F)(F)F)cc2)CC1 [Example 13, N-hydroxy-2-[[4-[4-(trifluoromethyl)phenoxy]-1-piperidinyl]sulfonyl]benzamide]",,,,,28.5 nM,

Compound,IC50 ([1]; Inhibition Table A),IC50 ([2]; Inhibition Table B),IC50 ([1]; Inhibition Table B),IC50 ([3]; Inhibition Table B),IC50 ([2]; Inhibition Table A),IC50 ([3]; Inhibition Table A)
"O=C(NO)c1ccccc1S(=O)(=O)N1CCC(Oc2ccc(OC(F)(F)F)cc2)CC1 [Example 12, N-Hydroxy-2-[[4-[4-(trifluoromethoxy)phenoxy]-1-piperidinyl]sulfonyl]benzamide]",2.2 nM,,,,,
O=C(NO)c1c(S(=O)(=O)N2CCC(Oc3ccc(C(F)(F)F)cc3)CC2)ccc2c1OCCO2 [Example 31],,7.7 nM,1.4 nM,> 10 µM,,
"O=C(NO)c1c(Cl)sc(Cl)c1S(=O)(=O)N1CCC(Oc2ccc(C(F)(F)F)cc2)CC1 [Example 32, 2,5-Dichloro-N-hydroxy-4-[[4-{4-(trifluoromethyl)phenoxy]-1-piperidinyl]sulfonyl]-3-thiophenecarboxamide]",,730 nM,110 nM,> 10 µM,,
"O=C(NO)c1ccccc1S(=O)(=O)N1CCC(Oc2ccccn2)CC1 [Example 42, N-hydroxyl-2-[[4-(2-pyridinyloxy)-1-piperidinyl]sulfonyl]benzamide, monohydrochloride]",,1200 nM,42 nM,,,
"COc1ccc(S(=O)(=O)N2CCN(Cc3ccc(OC(F)(F)F)cc3)CC2)c(C(=O)NO)c1OC [Example 53, N-Hydroxy-2,3-dimethoxy-6-[[4-[[4-(trifluoromethoxy)phenyl]methyl]-1-piperazinyl]sulfonyl]benzamide, monohydrochloride]",,1900 nM,240 nM,> 10 µM,,
"CCCCOc1ccc(N2CCN(S(=O)(=O)c3ccc(OC)c(OC)c3C(=O)NO)CC2)cc1C [Example 56, 6-[[4-(4-Butoxy-3-methylphenyl)-1-piperazinyl]sulfonyl]-N-hydroxy-2,3-dimethoxybenzamide, monohydrochloride]",,20 nM,9 nM,> 10 µM,,
"COCCOc1cccc(S(=O)(=O)N2CCC(Oc3ccc(C(F)(F)F)cc3)CC2)c1C(=O)NO [Example 23, N-Hydroxy-2-(2-methoxyethoxy)-6-[[4-[4-(trifluoromethyl)phenoxy]-1-piperidinyl]sulfonyl]benzamide]",,4.3 nM,1 nM,,,
COc1ccc(S(=O)(=O)N2CCC(Oc3ccc(-c4ccccc4)cc3)CC2)c(C(=O)NO)c1OC [Example 28],,1.8 nM,0.4 nM,> 10 µM,,
"COc1ccccc1OC1CCN(S(=O)(=O)c2ccc(OC)c(OC)c2C(=O)NO)CC1 [Example 34, N-Hydroxy-2,3-dimethoxy-6-[[4-(2-methoxyphenoxy)-1-piperidinyl]sulfonyl]benzamide]",,2500 nM,330 nM,> 10 µM,,
"O=C(NO)c1ccccc1S(=O)(=O)N1CCC(n2c(=O)[nH]c3ccccc32)CC1 [Example 29, 2-[[4-(2,3-Dihydro-2-oxo-1H-benzimidazol-1-yl)-1-piperidinyl]sulfonyl]-N-hydroxybenzamide]",,2000 nM,370 nM,> 10 µM,,
"COc1ccc(S(=O)(=O)N2CCC(Oc3ccccc3)CC2)c(C(=O)NO)c1OC [Example 47, N-Hydroxy-2,3-dimethoxy-6-[(4-phenoxy-1-piperidinyl)sulfonyl]benzamide]",,6.7 nM,1.1 nM,> 10 µM,,
"O=C(NO)c1c(S(=O)(=O)N2CCC(Oc3ccc4c(c3)OCO4)CC2)ccc2c1OCO2 [Example 49, 5-[[4-((1,3-Benzodioxol]-5-yloxy)-1-piperidinyl]sulfonyl]-N-hydroxy-1,3-benzodioxole-4-carboxamide]",,19 nM,1.1 nM,> 10 µM,,
CC(O)(C(=O)NO)c1ccccc1S(=O)(=O)N1CCC(c2ccccc2)CC1 (stereo not shown) [Example 10],70 nM,,,,520 nM,
"O=C(Cc1ccccc1S(=O)(=O)c1ccc(Oc2ccccc2)cc1)NO [Example 2, N-hydroxy-2-[(4-phenoxyphenyl)sulfonyl]benzeneacetamide]",0.3 nM,,,,2 nM,0.9 µM
"COc1ccc(S(=O)(=O)N2CCC(Oc3ccc(C(F)(F)F)cc3)CC2)c(C(=O)NO)c1OC [Example 16, N-Hydroxy-2,3-dimethoxy-6-[[4-[4-(trifluoromethyl)phenoxy]-1-piperidinyl)sulfonyl]benzamide]",2.4 nM,,,,2.7 nM,
